Columns and labels:
[1] = Tolerance of Fluralaner in laying hens (Example 1); format: in vivo, chickens; conditions: 0.5-2 mg/kg BW via medicated drinking water
Method: Experimental animals were chickens, particularly laying hens of about 30 weeks old. These were housed in a standard poultry house. Apparently healthy birds were assigned in a random way to treatment groups kept separately, and labelled individually. The birds were kept under natural light, and were given several days for acclimatization; drinking water consumption in each group was measured on three days prior to administration to calculate the average daily water consumption. Medicated water was prepared by diluting a concentrated Fluralaner solution (10 mg/ml) to the desired concentration of Fluralaner in regular tap water (hypochlorite <0.5 ppm). […]
The dose to be administered was calculated based on average body weights of each treatment group, measured one day before treatment (day −1, day 6). A concentrated Fluralaner solution was diluted in the drinking water to prepare medicated drinking water ready for consumption, via the following dosing regimen: • The volume of medicated water offered per group on day 0 (group D also on day 7) was approximately 50% of the calculated mean daily water intake measured previously in the respective group in order to ensure consumption of the full dose. • Once all medicated water was consumed the other 50% volume of the mean daily water intake was supplied as unmedicated tap water in the same drinker.

[2] = Tolerance and plasma concentrations of Fluralaner in laying hens (Example 2); format: in vivo, chickens
Method: No vitamin E was present in the concentrated Fluralaner solution used to prepare the medicated drinking water.
The effectivity of an oral dosing regimen of Fluralaner was tested by administering medicated drinking water (via gavage) to laying hens, in 2 repeated doses of 0.25, 0.5 or 1.0 mg/kg body weight, administered 7 days apart, and challenging them with infestation by Northern fowl mites, via source birds and natural infestation. The birds were kept in separate pens, at 11 birds per pen.

[3] = Effect of drinking water quality on degradation of Fluralaner; format: physicochemical
Method: To assess what caused the degradation of Fluralaner in dilution in drinking water, the impact of different types and qualities of drinking water was tested. This was done by incubation of samples containing 1 μg/g of Fluralaner, in water that contained different ions at increased concentrations from average normal conditions. Samples were mixed and incubated for 7 days, either at 2-8° C., or at 40° C./75% relative humidity (RH). Fluralaner contents were measured before and after incubations. Isoxazolines such as Fluralaner can be detected and quantified by fast liquid chromatography methods, using standard equipment and procedures, such as UHPLC. Standard liquids for washing and as carrier are e.g.: LC grade Acetonitrile, Methanol, Formic acid, and MiliQ™ water can be prepared in house. Fluralaner is characterised based on its UV spectrum and retention profile, and quantified in reference to dilutions of standards. LoQ=Limit of Quantitation, the lowest concentration at which the analyte can reliably be detected. For Fluralaner by UHPLC the LoQ is 100 ng/ml.

[4] = Accelerated stability testing of pharmaceutical composition comprising a protector; format: physicochemical; conditions: with alpha-tocopherol; up to 8 months; 2-8° C., 30° C./65% RH, 40° C./75% RH, 50° C.
Method: Similar to the experiments described in Example 3 above, where the effect of water quality on Fluralaner-containing medicated drinking water was tested; here samples of the pharmaceutical composition were tested for an effect of the addition of a protector, on their stability during prolonged storage.
To test the long term stability of the pharmaceutical composition with a protector, some samples were stored under conditions of accelerated ageing. Samples of the pharmaceutical composition with or without one of the protectors, were filled out in portions of 7 gram each, in 10 ml glass vials, sealed with rubber stoppers, and stored under different conditions: 2-8° C.; 30° C./65% RH; 40° C./75% RH, and 50° C. […]

[5] = 1 μg/g Fluralaner in Al^3+ water at 1 mg/l
[6] = 1 μg/g Fluralaner in ClO^- water at 0.5 ppm
[7] = 1 μg/g Fluralaner in ClO^- water at 5 ppm
[8] = 1 μg/g Fluralaner in ClO^- water at 50 ppm
[9] = 1 μg/g Fluralaner in ClO^- water at 150 ppm
[10] = 1 μg/g Fluralaner in ClO^- water at 250 ppm
[11] = 1 μg/g Fluralaner in Cl^- water at 300 mg/l
[12] = 1 μg/g Fluralaner in Cu^2+ water at 10 mg/l
[13] = 1 μg/g Fluralaner in Fe^3+ water at 1 mg/l
[14] = 1 μg/g Fluralaner in Hard water/high pH (500 mg CaCl2•2H2O/l; pH 8.1)
[15] = 1 μg/g Fluralaner in K^+ water at 300 mg/l
[16] = 1 μg/g Fluralaner in NO3^- water at 100 mg/l
[17] = 1 μg/g Fluralaner in Na^+ water at 300 mg/l
[18] = 1 μg/g Fluralaner in PO4^- water at 100 mg/l
[19] = 1 μg/g Fluralaner in Purified water
[20] = 1 μg/g Fluralaner in Soft water/low pH (30 mg CaCl2•2H2O/l; pH 6.2)
[21] = 1 μg/g Fluralaner in Water at pH = 4
[22] = 1 μg/g Fluralaner in Water at pH = 10

Q: With `Cc1cc(C2=NOC(c3cc(Cl)cc(Cl)c3)(C(F)(F)F)C2)ccc1C(=O)NCC(=O)NCC(F)(F)F` (stereo not shown) [Fluralaner] as the compound, how does the “Tolerance in the hens” value [1] read?
A: The value was “well tolerated”.

Q: What about the “Tolerance in the hens” value ([2]; 2 single doses of 0.25, 0.5, or 1 mg/kg BW, 7 days apart, oral) of the same compound?
A: Its value is “well tolerated”.

Q: And the “Concentrations of Fluralaner in the birds' plasma” value ([2]; doses 0.25, 0.5, 1.0 mg/kg BW twice)?
A: The value was “increased proportionally to the dose administered”.

Q: What about the “Fluralaner content after 7 days at 2-8° C.” value [3, 5] of the same compound?
A: Its value is 0.99 µg/g.

Q: And the “Fluralaner content after 7 days at 40° C./75% RH” value [3, 5]?
A: The value was 1.01 µg/g.

Q: And the “Fluralaner content after 7 days at 2-8° C.” value [3, 6]?
A: The value was 0.99 µg/g.

Q: What about the “Fluralaner content after 7 days at 40° C./75% RH” value [3, 6] of the same compound?
A: Its value is 0.82 µg/g.

Q: What about the “Fluralaner content after 7 days at 2-8° C.” value [3, 7] of the same compound?
A: The value was “<LOQ”.

Q: What about the “Fluralaner content after 7 days at 40° C./75% RH” value [3, 7] of the same compound?
A: The value was “<LOQ”.

Q: And the “Fluralaner content after 7 days at 2-8° C.” value [3, 8]?
A: Its value is “<LOQ”.

Q: What about the “Fluralaner content after 7 days at 40° C./75% RH” value [3, 8] of the same compound?
A: Its value is “<LOQ”.

Q: And the “Fluralaner content after 7 days at 2-8° C.” value [3, 9]?
A: Its value is “<LOQ”.

Q: And the “Fluralaner content after 7 days at 40° C./75% RH” value [3, 9]?
A: The value was “<LOQ”.

Q: What about the “Fluralaner content after 7 days at 2-8° C.” value [3, 10] of the same compound?
A: Its value is “Not detected”.

Q: What about the “Fluralaner content after 7 days at 40° C./75% RH” value [3, 10] of the same compound?
A: The value was “Not detected”.

Q: And the “Fluralaner content after 7 days at 2-8° C.” value [3, 11]?
A: Its value is 0.97 µg/g.

Q: And the “Fluralaner content after 7 days at 40° C./75% RH” value [3, 11]?
A: Its value is 0.98 µg/g.

Q: What about the “Fluralaner content after 7 days at 2-8° C.” value [3, 12] of the same compound?
A: The value was 0.90 µg/g.

Q: And the “Fluralaner content after 7 days at 40° C./75% RH” value [3, 12]?
A: Its value is 0.78 µg/g.

Q: What about the “Fluralaner content after 7 days at 2-8° C.” value [3, 13] of the same compound?
A: The value was 0.91 µg/g.

Q: And the “Fluralaner content after 7 days at 40° C./75% RH” value [3, 13]?
A: The value was 0.89 µg/g.

Q: And the “Fluralaner content after 7 days at 2-8° C.” value [3, 14]?
A: Its value is 0.92 µg/g.

Q: What about the “Fluralaner content after 7 days at 40° C./75% RH” value [3, 14] of the same compound?
A: Its value is 0.96 µg/g.

Q: And the “Fluralaner content after 7 days at 2-8° C.” value [3, 15]?
A: Its value is 0.90 µg/g.

Q: What about the “Fluralaner content after 7 days at 40° C./75% RH” value [3, 15] of the same compound?
A: Its value is 0.80 µg/g.

Q: What about the “Fluralaner content after 7 days at 2-8° C.” value [3, 16] of the same compound?
A: Its value is 0.92 µg/g.

Q: What about the “Fluralaner content after 7 days at 40° C./75% RH” value [3, 16] of the same compound?
A: The value was 0.93 µg/g.

Q: And the “Fluralaner content after 7 days at 2-8° C.” value [3, 17]?
A: The value was 0.85 µg/g.

Q: What about the “Fluralaner content after 7 days at 40° C./75% RH” value [3, 17] of the same compound?
A: The value was 0.84 µg/g.

Q: What about the “Fluralaner content after 7 days at 2-8° C.” value [3, 18] of the same compound?
A: Its value is 1.14 µg/g.

Q: And the “Fluralaner content after 7 days at 40° C./75% RH” value [3, 18]?
A: The value was 1.15 µg/g.

Q: What about the “Fluralaner content after 7 days at 2-8° C.” value [3, 19] of the same compound?
A: The value was 0.90 µg/g.

Q: And the “Fluralaner content after 7 days at 40° C./75% RH” value [3, 19]?
A: Its value is 0.92 µg/g.

Q: And the “Fluralaner content after 7 days at 2-8° C.” value [3, 20]?
A: The value was 0.88 µg/g.

Q: What about the “Fluralaner content after 7 days at 40° C./75% RH” value [3, 20] of the same compound?
A: The value was 0.89 µg/g.

Q: And the “Fluralaner content after 7 days at 2-8° C.” value [3, 21]?
A: Its value is 1.23 µg/g.

Q: What about the “Fluralaner content after 7 days at 40° C./75% RH” value [3, 21] of the same compound?
A: The value was 1.26 µg/g.

Q: And the “Fluralaner content after 7 days at 2-8° C.” value [3, 22]?
A: Its value is 0.78 µg/g.

Q: And the “Fluralaner content after 7 days at 40° C./75% RH” value [3, 22]?
A: The value was 0.79 µg/g.

Q: What about the “Level of Fluralaner in pharmaceutical composition on storage” value [4] of the same compound?
A: Its value is “no significant reduction”.

From patent publication US11179372B2, “Isoxazoline solution containing vitamin E for use with sanitized drinking water” (Intervet Inc., priority 2015, dated 2021)
